Consider 18 molecules from patent US5843889A, “Glycopeptide antibiotic derivatives” (Eli Lilly and Company, priority 1997, dated 1998).

In brackets after ≈: the same amount, converted by molar mass. Some results are limits rather than exact numbers.

What all share (assay): MIC, standard broth micro-dilution assay
Common to all, as to type: cell-based
(In general: Broth dilution looks for growth in wells or tubes with falling amounts of substance.)

One test deals with Entercoccus faecalis 276. As to the method: (§1) The formula I compounds have in vitro and in vivo activity against Gram-positive pathogenic bacteria. The MIC's were determined using a standard broth micro-dilution assay.
Test [1] deals with Entercoccus faecalis 2041. On the procedure:
as §1

Test [2] deals with Entercoccus gallinarum 245. On the procedure: as §1

By MIC is commonly meant the smallest concentration in the dilution series that meets the test's criterion for growth inhibition. A low value points to inhibition by little substance. Regarding `CCCCCc1ccc(-c2ccc(CNC3(C)CC(OC4C(Oc5c6cc7cc5Oc5ccc(cc5Cl)C(OC5CC(C)(N)C(O)C(C)O5)C5NC(=O)C(NC(=O)C7NC(=O)C(CC(N)=O)NC(=O)C(NC(=O)C(CC(C)C)NC)C(O)c7ccc(c(Cl)c7)O6)c6ccc(O)c(c6)-c6c(O)cc(O)cc6C(C(=O)O)NC5=O)OC(CO)C(O)C4O)OC(C)C3O)cc2)cc1` (stereo not drawn) [Compound 22, 4-[4-pentylphenyl]benzyl], the minimum inhibitory concentration (MIC) in the test with Entercoccus faecalis 276 was 4 µg/mL (≈ 2.19 µM); in test [1] it was 2 µg/mL (≈ 1.09 µM); in test [2], 1 µg/mL (≈ 0.547 µM).

With `CNC(CC(C)C)C(=O)NC1C(=O)NC(CC(N)=O)C(=O)NC2C(=O)NC3C(=O)NC(C(=O)NC(C(=O)O)c4cc(O)cc(O)c4-c4cc3ccc4O)C(OC3CC(C)(N)C(O)C(C)O3)c3ccc(c(Cl)c3)Oc3cc2cc(c3OC2OC(CO)C(O)C(O)C2OC2CC(C)(NCc3c4c(cc5ccccc35)CCCC4)C(O)C(C)O2)Oc2ccc(cc2Cl)C1O` (stereo not drawn) [Compound 156, 1,2,3,4,-tetrahydro-9-anthranylmethyl], the MIC against Entercoccus faecalis 276 stood at 2 µg/mL (≈ 1.12 µM); in test [1], 0.5 µg/mL (≈ 0.28 µM); in test [2] it was 2 µg/mL (≈ 1.12 µM).

For `CNC(CC(C)C)C(=O)NC1C(=O)NC(CC(N)=O)C(=O)NC2C(=O)NC3C(=O)NC(C(=O)NC(C(=O)O)c4cc(O)cc(O)c4-c4cc3ccc4O)C(OC3CC(C)(N)C(O)C(C)O3)c3ccc(c(Cl)c3)Oc3cc2cc(c3OC2OC(CO)C(O)C(O)C2OC2CC(C)(NCc3cccc(OC(=O)C4CCCCC4)c3)C(O)C(C)O2)Oc2ccc(cc2Cl)C1O` (stereo not drawn) [Compound 165, 3-cyclohexanoyloxybenzyl], the minimum inhibitory concentration (MIC) in the test on Entercoccus faecalis 276 is 0.5 µg/mL (≈ 0.276 µM); in test [1], ≤ 0.06 µg/mL; in test [2], 4 µg/mL (≈ 2.21 µM).

As for `CNC(CC(C)C)C(=O)NC1C(=O)NC(CC(N)=O)C(=O)NC2C(=O)NC3C(=O)NC(C(=O)NC(C(=O)O)c4cc(O)cc(O)c4-c4cc3ccc4O)C(OC3CC(C)(N)C(O)C(C)O3)c3ccc(c(Cl)c3)Oc3cc2cc(c3OC2OC(CO)C(O)C(O)C2OC2CC(C)(NCCCCCCCCCCc3ccccc3)C(O)C(C)O2)Oc2ccc(cc2Cl)C1O` (stereo not drawn) [Compound 197, 10-phenyldecyl], the MIC against Entercoccus faecalis 276 was 1 µg/mL (≈ 0.553 µM); in test [1], 0.25 µg/mL (≈ 0.138 µM); in test [2], 4 µg/mL (≈ 2.21 µM).

For the molecule `CNC(CC(C)C)C(=O)NC1C(=O)NC(CC(N)=O)C(=O)NC2C(=O)NC3C(=O)NC(C(=O)NC(C(=O)O)c4cc(O)cc(O)c4-c4cc3ccc4O)C(OC3CC(C)(N)C(O)C(C)O3)c3ccc(c(Cl)c3)Oc3cc2cc(c3OC2OC(CO)C(O)C(O)C2OC2CC(C)(NCc3ccc(-c4ccccc4)s3)C(O)C(C)O2)Oc2ccc(cc2Cl)C1O` (stereo not drawn) [Compound 67, 5-phenyl-2-thienylmethyl], the minimal inhibitory concentration (MIC) was ≤ 0.06 µg/mL against Entercoccus faecalis 276, ≤ 0.06 µg/mL in test [1] and 2 µg/mL (≈ 1.13 µM) in test [2].

With `CNC(CC(C)C)C(=O)NC1C(=O)NC(CC(N)=O)C(=O)NC2C(=O)NC3C(=O)NC(C(=O)NC(C(=O)O)c4cc(O)cc(O)c4-c4cc3ccc4O)C(OC3CC(C)(N)C(O)C(C)O3)c3ccc(c(Cl)c3)Oc3cc2cc(c3OC2OC(CO)C(O)C(O)C2OC2CC(C)(NCc3ccc(-c4ccc(Br)cc4)cc3)C(O)C(C)O2)Oc2ccc(cc2Cl)C1O` (stereo not drawn) [Compound 230, 4-[4-bromophenyl]benzyl], the MIC in the test with Entercoccus faecalis 276 is ≤ 0.06 µg/mL; in test [1], ≤ 0.06 µg/mL; in test [2], 2 µg/mL (≈ 1.09 µM).

On to `CN[C@H](CC(C)C)C(=O)N[C@H]1C(=O)N[C@@H](CC(N)=O)C(=O)N[C@H]2C(=O)N[C@H]3C(=O)N[C@H](C(=O)N[C@H](C(=O)O)c4cc(O)cc(O)c4-c4cc3ccc4O)[C@H](O[C@H]3C[C@](C)(N)[C@@H](O)[C@H](C)O3)c3ccc(c(Cl)c3)Oc3cc2cc(c3O[C@@H]2O[C@H](CO)[C@@H](O)[C@H](O)[C@H]2O[C@H]2C[C@](C)(NCc3ccc(-c4ccc(C)cc4)cc3)[C@@H](O)[C@H](C)O2)Oc2ccc(cc2Cl)[C@H]1O` [Compound 97, 4-[4-methylphenyl]benzyl], for which the MIC in the test on Entercoccus faecalis 276 was ≤ 0.06 µg/mL; in test [1] it was ≤ 0.06 µg/mL; in test [2], 2 µg/mL (≈ 1.13 µM).

On to `CNC(CC(C)C)C(=O)NC1C(=O)NC(CC(N)=O)C(=O)NC2C(=O)NC3C(=O)NC(C(=O)NC(C(=O)O)c4cc(O)cc(O)c4-c4cc3ccc4O)C(OC3CC(C)(N)C(O)C(C)O3)c3ccc(c(Cl)c3)Oc3cc2cc(c3OC2OC(CO)C(O)C(O)C2OC2CC(C)(NCc3ccc(-c4ccc([N+](=O)[O-])cc4)c([N+](=O)[O-])c3)C(O)C(C)O2)Oc2ccc(cc2Cl)C1O` (stereo not drawn) [Compound 212, 3-nitro-4-[4-nitrophenyl]benzyl], for which the MIC was ≤ 0.06 µg/mL in the test on Entercoccus faecalis 276, ≤ 0.06 µg/mL in test [1] and 1 µg/mL (≈ 0.541 µM) in test [2].

Regarding `CNC(CC(C)C)C(=O)NC1C(=O)NC(CC(N)=O)C(=O)NC2C(=O)NC3C(=O)NC(C(=O)NC(C(=O)O)c4cc(O)cc(O)c4-c4cc3ccc4O)C(OC3CC(C)(N)C(O)C(C)O3)c3ccc(c(Cl)c3)Oc3cc2cc(c3OC2OC(CO)C(O)C(O)C2OC2CC(C)(NCCc3ccc4ccccc4c3)C(O)C(C)O2)Oc2ccc(cc2Cl)C1O` (stereo not drawn) [Compound 179, 2-[2-napthyl]ethyl], the minimal inhibitory concentration (MIC) was ≤ 0.06 µg/mL with Entercoccus faecalis 276, ≤ 0.06 µg/mL in test [1] and 1 µg/mL (≈ 0.573 µM) in test [2].

As to `CNC(CC(C)C)C(=O)NC1C(=O)NC(CC(N)=O)C(=O)NC2C(=O)NC3C(=O)NC(C(=O)NC(C(=O)O)c4cc(O)cc(O)c4-c4cc3ccc4O)C(OC3CC(C)(N)C(O)C(C)O3)c3ccc(c(Cl)c3)Oc3cc2cc(c3OC2OC(CO)C(O)C(O)C2OC2CC(C)(NCCCCCCCCCC#Cc3ccccc3)C(O)C(C)O2)Oc2ccc(cc2Cl)C1O` (stereo not drawn) [Compound 236, 11-phenyl-10-undecynyl], the minimal inhibitory concentration (MIC) worked out at 2 µg/mL (≈ 1.1 µM) against Entercoccus faecalis 276, 1 µg/mL (≈ 0.55 µM) in test [1] and 4 µg/mL (≈ 2.2 µM) in test [2].

Regarding `CCCCCCCCOc1ccc(-c2ccc(CNC3(C)CC(OC4C(Oc5c6cc7cc5Oc5ccc(cc5Cl)C(OC5CC(C)(N)C(O)C(C)O5)C5NC(=O)C(NC(=O)C7NC(=O)C(CC(N)=O)NC(=O)C(NC(=O)C(CC(C)C)NC)C(O)c7ccc(c(Cl)c7)O6)c6ccc(O)c(c6)-c6c(O)cc(O)cc6C(C(=O)O)NC5=O)OC(CO)C(O)C4O)OC(C)C3O)cc2)cc1` (stereo not drawn) [Compound 23, 4-[4-octyloxyphenyl]benzyl], the figures for the MIC (in the test with Entercoccus faecalis 276; in test [1]; in test [2]) were 32 µg/mL (≈ 17 µM), 32 µg/mL (≈ 17 µM) and 8 µg/mL (≈ 4.24 µM), respectively.

Regarding `C=CCOc1ccc(CNC2(C)CC(OC3C(Oc4c5cc6cc4Oc4ccc(cc4Cl)C(OC4CC(C)(N)C(O)C(C)O4)C4NC(=O)C(NC(=O)C6NC(=O)C(CC(N)=O)NC(=O)C(NC(=O)C(CC(C)C)NC)C(O)c6ccc(c(Cl)c6)O5)c5ccc(O)c(c5)-c5c(O)cc(O)cc5C(C(=O)O)NC4=O)OC(CO)C(O)C3O)OC(C)C2O)cc1` (stereo not drawn) [Compound 7, 4-allyloxybenzyl], the minimum inhibitory concentration (MIC) in the test with Entercoccus faecalis 276 was found to be 1 µg/mL (≈ 0.575 µM); in test [1], 0.125 µg/mL (≈ 0.0719 µM); in test [2], 0.5 µg/mL (≈ 0.288 µM).

Consider `CNC(CC(C)C)C(=O)NC1C(=O)NC(CC(N)=O)C(=O)NC2C(=O)NC3C(=O)NC(C(=O)NC(C(=O)O)c4cc(O)cc(O)c4-c4cc3ccc4O)C(OC3CC(C)(N)C(O)C(C)O3)c3ccc(c(Cl)c3)Oc3cc2cc(c3OC2OC(CO)C(O)C(O)C2OC2CC(C)(NCc3ccc(-c4ccccc4)cc3F)C(O)C(C)O2)Oc2ccc(cc2Cl)C1O` (stereo not drawn) [Compound 206, 4-phenyl-2-fluorobenzyl], for which the MIC with Entercoccus faecalis 276 is ≤ 0.06 µg/mL; in test [1], 0.25 µg/mL (≈ 0.141 µM); in test [2], 1 µg/mL (≈ 0.563 µM).

On to `CNC(CC(C)C)C(=O)NC1C(=O)NC(CC(N)=O)C(=O)NC2C(=O)NC3C(=O)NC(C(=O)NC(C(=O)O)c4cc(O)cc(O)c4-c4cc3ccc4O)C(OC3CC(C)(N)C(O)C(C)O3)c3ccc(c(Cl)c3)Oc3cc2cc(c3OC2OC(CO)C(O)C(O)C2OC2CC(C)(NCc3cc4ccccc4c4ccccc34)C(O)C(C)O2)Oc2ccc(cc2Cl)C1O` (stereo not drawn) [Compound 11, 9-phenanthranylmethyl], for which the minimum inhibitory concentration (MIC) is 1 µg/mL (≈ 0.561 µM) against Entercoccus faecalis 276, 0.5 µg/mL (≈ 0.28 µM) in test [1] and ≤ 0.06 µg/mL in test [2].

Regarding `CNC(CC(C)C)C(=O)NC1C(=O)NC(CC(N)=O)C(=O)NC2C(=O)NC3C(=O)NC(C(=O)NC(C(=O)O)c4cc(O)cc(O)c4-c4cc3ccc4O)C(OC3CC(C)(N)C(O)C(C)O3)c3ccc(c(Cl)c3)Oc3cc2cc(c3OC2OC(CO)C(O)C(O)C2OC2CC(C)(NCCCCCCCCOc3ccc(-c4ccccc4)cc3)C(O)C(C)O2)Oc2ccc(cc2Cl)C1O` (stereo not drawn) [Compound 201, 8-[4-phenylphenoxy]octyl], the minimum inhibitory concentration (MIC) with Entercoccus faecalis 276 stood at 4 µg/mL (≈ 2.14 µM); in test [1] it was 1 µg/mL (≈ 0.534 µM); in test [2], 8 µg/mL (≈ 4.27 µM).

As to `CNC(CC(C)C)C(=O)NC1C(=O)NC(CC(N)=O)C(=O)NC2C(=O)NC3C(=O)NC(C(=O)NC(C(=O)O)c4cc(O)cc(O)c4-c4cc3ccc4O)C(OC3CC(C)(N)C(O)C(C)O3)c3ccc(c(Cl)c3)Oc3cc2cc(c3OC2OC(CO)C(O)C(O)C2OC2CC(C)(NCc3cncc(-c4ccccc4)c3)C(O)C(C)O2)Oc2ccc(cc2Cl)C1O` (stereo not drawn) [Compound 151, 5-phenyl-3-pyridinylmethyl], the values for the minimum inhibitory concentration (MIC) (in the test with Entercoccus faecalis 276; in test [1]; in test [2]) were ≤ 0.06 µg/mL, ≤ 0.06 µg/mL and 4 µg/mL (≈ 2.27 µM), respectively.

As to `CNC(CC(C)C)C(=O)NC1C(=O)NC(CC(N)=O)C(=O)NC2C(=O)NC3C(=O)NC(C(=O)NC(C(=O)O)c4cc(O)cc(O)c4-c4cc3ccc4O)C(OC3CC(C)(N)C(O)C(C)O3)c3ccc(c(Cl)c3)Oc3cc2cc(c3OC2OC(CO)C(O)C(O)C2OC2CC(C)(NCc3ccc(OCCC4CCCCC4)cc3)C(O)C(C)O2)Oc2ccc(cc2Cl)C1O` (stereo not drawn) [Compound 127, 4-[cyclohexylethoxy]benzyl], the figures for the MIC (against Entercoccus faecalis 276; in test [1]; in test [2]) were ≤ 0.06 µg/mL, ≤ 0.06 µg/mL and 4 µg/mL (≈ 2.21 µM), respectively.

In the case of `CNC(CC(C)C)C(=O)NC1C(=O)NC(CC(N)=O)C(=O)NC2C(=O)NC3C(=O)NC(C(=O)NC(C(=O)O)c4cc(O)cc(O)c4-c4cc3ccc4O)C(O)c3ccc(c(Cl)c3)Oc3cc2cc(c3OC2OC(CO)C(O)C(O)C2OC2CC(C)(NCc3cccc4ccccc34)C(O)C(C)O2)Oc2ccc(cc2Cl)C1O` (stereo not drawn) [Compound 180, 1-napthylmethyl], the MIC was found to be 2 µg/mL (≈ 1.26 µM) against Entercoccus faecalis 276, 0.25 µg/mL (≈ 0.157 µM) in test [1] and 0.25 µg/mL (≈ 0.157 µM) in test [2].
